The numbers were not newly measured in patent US20160102058A1, “FLUORO-PERHEXILINE COMPOUNDS AND THEIR THERAPEUTIC USE” (THE UNIVERSITY COURT OF THE UNIVERSITY OF ABERDEEN, priority 2013, published 2016), which cites them from elsewhere.

One data set deals with CPT-2. As to conditions: read-out: inhibition of CPT-2; cited from earlier work.
The test system of another data set is hepatocytes. The note with it: cited from earlier work.

Take `C1CCC(C(CC2CCCCN2)C2CCCCC2)CC1` (centres unmarked) [Perhexiline, 2-(2,2-dicyclohexylethyl)piperidine]: in the data set on CPT-2, the IC50 was 79 µM. The “inhibition of fatty acid oxidation in hepatocytes” value with hepatocytes is 22 µM.
